From patent US6562791B1, “Glucopyranoside, process for isolation thereof, pharmaceutical composition containing same and use thereof” (Council of Scientific and Industrial Research, priority 2002, dated 2003)

Tested on: 18 hour fasted Wistar rats
Assay: hypoglycaemic activity in 18 hour fasted Wistar rats
Type: in vivo
Details: for mean fall (blood glucose): compound at 15 mg/kg p.o., chlorpropamide positive control, dose not given
Description: The compound was evaluated for hypoglycaemic activity in 18 hour fasted Wistar rats. […] The mean fall recorded was 24 mg/100 ml blood, from an initial mean of 91 to mean of 67 mg/100 ml blood.

CCCNC(=O)NS(=O)(=O)c1ccc(Cl)cc1 [chlorpropamide, reference compound]
mean fall (blood glucose): 18 mg/100 ml blood

OC[C@H]1O[C@@H](c2c(O)ccc3cc(Cc4ccc(O)cc4)oc23)[C@H](O)[C@@H](O)[C@@H]1O [formula 1, 6-hydroxy-2-p-hydroxybenzylbenzofuran-7-C-β-D-glucopyranoside]
hypoglycaemic effect (15 mg/kg p.o.): hypoglycaemic effect was recorded in all the treated rats | mean blood level after treatment (15 mg/kg p.o., after treatment): 67 mg/100 ml blood | mean fall (blood glucose): 24 mg/100 ml blood | initial mean blood level (initial value of the treated group): 91 mg/100 ml blood
